Measurements from article PMC6747051, “Screening of Antiviral Components of Ma Huang Tang and Investigation on the Ephedra Alkaloids Efficacy on Influenza Virus Type A” (Frontiers in Pharmacology, 2019).
Converted amounts (≈) assume the structure as drawn. “And” between values parts separate entries of the source, which are not always exact repeats. Identical values can stand only once. “Also recorded” adds a separate entry of the source. Like-named read-outs stand apart in the source and are kept apart here.

Key:
influenza A virus [1] = test: microbe, parasite or virus in culture; settings: MDCK, 48 h, read-out: Cell survival rate
influenza A virus [2] = settings: for cell viability rate: dog
MDCK cells = settings: dog
influenza A virus [3] = test: Antiviral activity assay in vitro with four ways of drug delivery (MTT, MDCK cells); format: cell-based, influenza virus A/PR8/34 (H1N1); settings: for EC50: Influenza A virus, MDCK
[4] = system: IL-6, IFN-β and TNF-α levels; format: cell-based, canine
influenza A virus [5] = test: Viral load assay using real-time RT-PCR (M1 gene) and CPE in infected MDCK cells; format: cell-based, influenza virus A/PR8/34 (H1N1); settings: for virus load vs oseltamivir group: LMEP 31.25 μg/ml, LEP […], DPEP […]
[6] = system: TLRs signaling pathway mRNA; format: cell-based, canine
[7] = system: TLR4, TLR7, MyD88 and NF-κB p65 protein expression; design: species or system ICR mice; settings: mouse, in vivo
[8] = system: IL-1β, IL-6 and IL-10 in serum; format: in vivo, ICR mice; settings: 3rd and 7th day after infection
Protocol: (§1) A total of 108 ICR mice were randomly divided into the control uninfected group, the control infected group, oseltamivir group, LEP-treated groups and DPEP-treated groups; 12 mice were designed in each group. Except for the mice in the control uninfected group, others were anaesthetized with ethyl ether and intranasally infected with 10LD50 influenza A virus (A PR/8/34) in a volume of 50 μl PBS to induce viral pneumonia. […] Meanwhile, the control uninfected group and the control infected group were only given saline with the same volume. […] The adult daily dose was converted into the high dose of mice, which was about 40 mg/kg. Based on the high dose of the drug, the medium and low doses were set.
In days 3 and 7 post-infection, blood samples of six mice from each group were collected from retroorbital sinus under mild ethyl ether anesthesia before they were sacrificed, then under 4 °C they were centrifuged at 3000 rpm for 20 min to obtain serum. The levels of IL-1β, IL-6 and IL-10 in murine serum were determined by ELISA kits.

[9] = system: influenza A virus (A PR/8/34); test: Lung index of influenza A virus-infected mice; format: in vivo, ICR mice
Protocol: as §1
(§2) In the 3rd and 7th days after infection, to monitor the histological changes in influenza A virus-infected animals, six mice were sacrificed randomly in each group, and lung, spleen and thymus tissues were obtained and weighed after being washed with saline solution. Lung index and the inhibition ratio of the lung index were calculated as our previous report, while spleen and thymus indexes were calculated based on the following formulas ([Ling et al., 2017]).

[10] = system: influenza A virus (A PR/8/34); test: Spleen and thymus indexes of infected mice; format: in vivo, ICR mice
Protocol: as §1, §2
Spleen index = (spleen weight/body weight)×100%;
Thymus index = (thymus weight/body weight)×100%;

[11] = 24 and 48 h after administration

O=C(O)/C=C/c1ccccc1 [CMA, cinnamic acid]
viability at 1.95 µg/mL (influenza A virus [1]): 27.7% | viability at 3.91 µg/mL (influenza A virus [1]): 27.9% | viability at 7.81 µg/mL (influenza A virus [1]): 30.9% | viability at 31.25 µg/mL (influenza A virus [1]): 33.5% | viability at […] (influenza A virus [1]): 34.8% | effect on the cell viability after virus infection (in words) (influenza A virus [2]): little antiviral effect

N#C[C@H](O[C@@H]1O[C@H](CO[C@@H]2O[C@H](CO)[C@@H](O)[C@H](O)[C@H]2O)[C@@H](O)[C@H](O)[C@H]1O)c1ccccc1 [AMY, amygdalin]
TC0 (MDCK cells): 31.25 µg/mL | TC50 (MDCK cells): 563.64 µg/mL (≈ 1230 µM) | viability at 0.98 µg/mL (influenza A virus [1]): 26.2% | viability at 1.95 µg/mL (influenza A virus [1]): 27% | viability at 3.91 µg/mL (influenza A virus [1]): 29% | viability at 7.81 µg/mL (influenza A virus [1]): 27.9% | viability at 31.25 µg/mL (influenza A virus [1]): 28.9% | viability at […] (influenza A virus [1]): 28.2% | effect on the cell viability after virus infection (in words) (influenza A virus [2]): little antiviral effect

C[C@@H]([C@H](O)c1ccccc1)N(C)C [LMEP, L-methylephedrin]
TC0 (MDCK cells): 31.25 µg/mL | TC50 (MDCK cells): 216.77 µg/mL (≈ 1210 µM) | cells' survival rate (MDCK cells): higher than 90% | antiviral effective rate (ER) (influenza A virus [3]; 31.25 μg/ml (highest concentration), post-treatment host cells after virus infection): 63.52% and 64.16% | antiviral effective rate (ER) (influenza A virus [3]; 31.25 μg/ml, limited treatment of 1 hour during virus infection): 60.58% | antiviral effective rate (ER) (influenza A virus [3]; 31.25 μg/ml, pre-treatment host cells prior to virus infection): 56.94% | antiviral effective rate (ER) (influenza A virus [3]; 31.25 μg/ml, pre-treatment of virus with drug): 61.48% | EC50 (influenza A virus [3]; drug delivery way: Blocking viruses invading host cells): 20.4 µg/mL (≈ 114 µM) | EC50 (influenza A virus [3]; drug delivery way: Directly inhibiting virus): 7.55 µg/mL (≈ 42.1 µM) | EC50 (influenza A virus [3]; drug delivery way: Inhibiting the biosynthesis of virus): 6.65 µg/mL (≈ 37.1 µM) | EC50 (influenza A virus [3]; drug delivery way: Intervening the adsorption of virus): 7.85 µg/mL (≈ 43.8 µM) | antiviral effective rate (ER) (influenza A virus [3]; final concentration 3.91 μg/ml): more than 34.00% | IL-6 level in cell supernatant vs control infected group [4]: significantly higher than that in the control infected group | level of IFN-β in cell supernatant vs control infected group [4]: significantly increase; also recorded: increased | secretion of TNF-α vs control infected group [4]: significantly inhibited the secretion of TNF-α | CPE of infected MDCK cells (influenza A virus [5]; [11]): significantly reduce the CPE | virus load vs oseltamivir group (influenza A virus [5]; 24 h treatment, P < 0.05): significantly lower than that of oseltamivir group | virus load vs oseltamivir group (influenza A virus [5]; 48 h treatment): no difference | viral load in MDCK cells vs control infected group (influenza A virus [5]; each dose group, 24 and 48 h after administration, P < 0.01 or P < 0.05): significantly decreased | viability at 0.98 µg/mL (influenza A virus [1]): 57.3% | viability at 1.95 µg/mL (influenza A virus [1]): 63.2% | viability at 3.91 µg/mL (influenza A virus [1]): 66.6% | viability at 7.81 µg/mL (influenza A virus [1]): 70.3% | viability at 31.25 µg/mL (influenza A virus [1]): 77.8% | viability at […] (influenza A virus [1]): 75.1% | cell viability rate (influenza A virus [2]): ≥ 70% | mRNA expression levels of TLR7, NF-κB p65, TLR3 and IRF3 [6]: significantly reduced | mRNA expression of IFN-β [6]: significantly increased | mRNA expression of TLR4 [6]: significant decreased | mRNA expression of TLR4, MyD88 and TRAF3 [6]: significantly reduced | mRNA expression of TRAF3 [6]: significantly reduced

O=C1C[C@@H](c2ccc(O[C@@H]3O[C@H](CO)[C@@H](O)[C@H](O)[C@H]3O)cc2)Oc2cc(O)ccc21 [LIQ, liquiritin]
TC0 (MDCK cells; 48 h): 250.00 µg/mL | TC50 (MDCK cells; 48 h): 680.77 µg/mL (≈ 1630 µM) | viability at 7.81 µg/mL (influenza A virus [1]): 26.6% | viability at 31.25 µg/mL (influenza A virus [1]): 28.4% | viability at 125 µg/mL (influenza A virus [1]): 32.2% | viability at 250 µg/mL (influenza A virus [1]): 33.7% | viability at […] (influenza A virus [1]): 26.9% and 28% | effect on the cell viability after virus infection (in words) (influenza A virus [2]): little antiviral effect

CC1(C)[C@@H](O[C@H]2O[C@H](C(=O)O)[C@@H](O)[C@H](O)[C@H]2O[C@@H]2O[C@H](C(=O)O)[C@@H](O)[C@H](O)[C@H]2O)CC[C@]2(C)[C@H]3C(=O)C=C4[C@@H]5C[C@@](C)(C(=O)O)CC[C@]5(C)CC[C@@]4(C)[C@]3(C)CC[C@@H]12 [GA, glycyrrhizic acid]
TC0 (MDCK cells; 48 h): 125.00 µg/mL | TC50 (MDCK cells; 48 h): 663.74 µg/mL (≈ 807 µM) | viability at 3.91 µg/mL (influenza A virus [1]): 31.1% | viability at 7.81 µg/mL (influenza A virus [1]): 32.8% | viability at 31.25 µg/mL (influenza A virus [1]): 43% | viability at 125 µg/mL (influenza A virus [1]): 47.2% | viability at […] (influenza A virus [1]): 34.4% and 46% | effect on the cell viability after virus infection (in words) (influenza A virus [2]): slightly increase the cell viability rate, but not obviously | cell viability rate (influenza A virus [2]): about 47%

OC/C=C/c1ccccc1 [CAO, cinnamic alcohol]
TC0 (MDCK cells): 125.00 µg/mL | TC50 (MDCK cells): 390.84 µg/mL (≈ 2910 µM) | viability at 3.91 µg/mL (influenza A virus [1]): 25% | viability at 7.81 µg/mL (influenza A virus [1]): 25.9% | viability at 31.25 µg/mL (influenza A virus [1]): 26.4% | viability at 125 µg/mL (influenza A virus [1]): 32.6% | viability at […] (influenza A virus [1]): 26.7% and 29.9% | effect on the cell viability after virus infection (in words) (influenza A virus [2]): little antiviral effect

CCOC(=O)C1=C[C@@H](OC(CC)CC)[C@H](NC(C)=O)[C@@H](N)C1 [Oseltamivir, reference compound]
protein expression levels of MyD88 and NF-κB p65 in lung tissue [7]: significantly down-regulated | protein expression levels of TLR4 and TLR7 in lung tissue [7]: Decreased | TC0 (MDCK cells; 48 h): 100.00 µg/mL | TC50 (MDCK cells; 48 h): 500.00 µg/mL (≈ 1600 µM) | IL-10 in serum ([8]; P < 0.01): accelerated the production of IL-10 | IL-1β in serum ([8]; P < 0.01 or P < 0.05): dramatically inhibited the production of IL-1β | IL-6 in serum ([8]; P > 0.05): slightly increased | IL-6 level in cell supernatant vs control infected group [4]: significantly higher than that in the control infected group | CPE of infected MDCK cells (influenza A virus [5]; [11]): significantly reduce the CPE | Inhibition ratio of lung index ([9]; Day 3, 22 mg/kg by gavage): 41.27% | Lung index ([9]; Day 3, 22 mg/kg by gavage): 0.74 ± 0.03 | Inhibition ratio of lung index ([9]; Day 7, 22 mg/kg by gavage): 38.86% | Lung index ([9]; Day 7, 22 mg/kg by gavage): 1.18 ± 0.11 | viability at 10 µg/mL (influenza A virus [1]): 82.7% | spleen index ([10]; Day 3, 22 mg/kg): 0.51 ± 0.13 | thymus index ([10]; Day 3, 22 mg/kg): 0.45 ± 0.05 | spleen index ([10]; Day 7, 22 mg/kg): 0.49 ± 0.08 | thymus index ([10]; Day 7, 22 mg/kg): 0.38 ± 0.03
